Where two headings read alike, the source gives them in different places.
Target: T1, mTOR (Homo sapiens, UniProt P42345)
T1 construct: endogenous in cells; host or cells: Jurkat cells (ATCC TIB-152, clone E6-1), lysate
Experiment: mTOR kinobeads assay (dot blot detection)
Format: binding
Outline: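 Jurkat cell lysate (5 mg/mL protein) incubated 2 h in the cold with test compound (9-step 1:3 series) and immobilized phenylthiazole/phenylmorpholin-chromen ligand beads. Bead-bound kinases eluted, detected by specific antibody dot blot with infrared readout; IC50 from dose-response curves.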

[1] = Table 2, Jurkat cell lysate, read-out: Inhibition values (IC50) mTor
[2] = Table 4, read-out: Inhibition values (IC50) mTOR

| SMILES | IC50 [1] | IC50 [2] |
| --- | --- | --- |
| O=C(Nc1ccncc1)Nc1ccc(-c2nccc(N3CC4CCC(C3)O4)n2)cc1 [Example 61, 1-(4-(4-(8-oxa-3-azabicyclo[3.2.1]octan-3-yl)pyrimidin-2-yl)phenyl)-3-(pyridin-4-yl)urea] | 100 to 1000 nM | 100 to 1000 nM |
| C[C@H]1COCCN1c1cc(-c2ccccc2S(C)(=O)=O)nc(-c2ccc(NC(=O)NC3CC3)cc2)n1 [Example 6, (S)-1-cyclopropyl-3-(4-(4-(3-methylmorpholino)-6-(2-(methylsulfonyl)phenyl)pyrimidin-2-yl)phenyl)urea] | 100 to 1000 nM | 100 to 1000 nM |
| CCNC(=O)Nc1ccc(-c2cc(-c3ccccc3C#N)nc(N3CCOC[C@@H]3C)n2)cc1 [Example 8, (S)-1-(4-(6-(2-cyanophenyl)-2-(3-methylmorpholino)pyrimidin-4-yl)phenyl)-3-ethylurea] | 1000 to 10000 nM | 1000 to 10000 nM |
| C[C@H]1COCCN1c1ccnc(-c2ccc(NC(=O)Nc3ccncc3)cc2)n1 [Example 60, (S)-1-(4-(4-(3-methylmorpholino)pyrimidin-2-yl)phenyl)-3-(pyridin-4-yl)urea] | 100 to 1000 nM | 100 to 1000 nM |
| C[C@H]1COCCN1c1cc(-c2ccccn2)nc(-c2ccc(NC(=O)NCCO)cc2)n1 [Example 43, (S)-1-(2-hydroxyethyl)-3-(4-(4-(3-methylmorpholino)-6-(pyridin-2-yl)pyrimidin-2-yl)phenyl)urea] | 100 to 1000 nM | 100 to 1000 nM |
| C[C@H]1COCCN1c1cc(-c2ccc(F)nc2)nc(-c2ccc(NC(=O)NC3CC3)cc2)n1 [Example 21, (S)-1-cyclopropyl-3-(4-(4-(6-fluoropyridin-3-yl)-6-(3-methylmorpholino)pyrimidin-2-yl)phenyl)urea] | 100 to 1000 nM | 100 to 1000 nM |
| C[C@H]1COCCN1c1cc(-c2cncc(F)c2)nc(-c2ccc(NC(=O)NC3CC3)cc2)n1 [Example 23, (S)-1-cyclopropyl-3-(4-(4-(5-fluoropyridin-3-yl)-6-(3-methylmorpholino)pyrimidin-2-yl)phenyl)urea] | 100 to 1000 nM | 100 to 1000 nM |
| C[C@H]1COCCN1c1cc(-c2ccccn2)nc(-c2ccc(NC(=O)NC3CC3)cc2)n1 [Example 42, (S)-1-cyclopropyl-3-(4-(4-(3-methylmorpholino)-6-(pyridin-2-yl)pyrimidin-2-yl)phenyl)urea] | 100 to 1000 nM | 100 to 1000 nM |

More lines, now with the values ahead:

| IC50 [1] | IC50 [2] | SMILES |
| --- | --- | --- |
| 100 to 1000 nM | 100 to 1000 nM | C[C@H]1COCCN1c1nc(-c2ccc(NC(=O)NCCCO)cc2)cc(-c2cc(F)ccc2S(C)(=O)=O)n1 [Example 64, (S)-1-(4-(6-(5-fluoro-2-(methylsulfonyl)phenyl)-2-(3-methylmorpholino)pyrimidin-4-yl)phenyl)-3-(3-hydroxypropyl)urea] |
| 100 to 1000 nM | 100 to 1000 nM | C[C@H]1COCCN1c1nc(-c2ccc(NC(=O)NC3CC3)cc2)cc(-c2cc(F)ccc2S(C)(=O)=O)n1 [Example 40, (S)-1-cyclopropyl-3-(4-(6-(5-fluoro-2-(methylsulfonyl)phenyl)-2-(3-methylmorpholino)pyrimidin-4-yl)phenyl)urea] |
| 100 to 1000 nM | 100 to 1000 nM | C[C@H]1COCCN1c1nc(-c2ccc(NC(=O)NCC(F)F)cc2)cc(-c2cc(F)ccc2S(C)(=O)=O)n1 [Example 47, (S)-1-(2,2-difluoroethyl)-3-(4-(6-(5-fluoro-2-(methylsulfonyl)phenyl)-2-(3-methylmorpholino)pyrimidin-4-yl)phenyl)urea] |
| 100 to 1000 nM | 100 to 1000 nM | C[C@H]1COCCN1c1nc(-c2ccc(NC(=O)NC3CC3)cc2)cc(-c2cccnc2S(C)(=O)=O)n1 [Example 46, (S)-1-cyclopropyl-3-(4-(2-(3-methylmorpholino)-6-(2-(methylsulfonyl)pyridin-3-yl)pyrimidin-4-yl)phenyl)urea] |
| – | 100 to 1000 nM | C[C@H]1COCCN1c1nc(-c2ccc(NC(=O)N[C@H]3CCC[C@@H]3O)cc2)cc(-c2cc(F)ccc2S(C)(=O)=O)n1 [Example 76, 1-(4-(6-(5-fluoro-2-(methylsulfonyl)phenyl)-2-((S)-3-methylmorpholino)pyrimidin-4-yl)phenyl)-3-((1S,2S)-2-hydroxycyclopentyl)urea] |
| 100 to 1000 nM | 100 to 1000 nM | C[C@H]1COCCN1c1nc(-c2ccc(NC(=O)NC3CC3)cc2)cc(-c2ccccc2S(C)(=O)=O)n1 [Example 4, (S)-1-cyclopropyl-3-(4-(2-(3-methylmorpholino)-6-(2-(methylsulfonyl)phenyl)pyrimidin-4-yl)phenyl)urea] |
| < 100 nM | < 100 nM | C[C@H]1COCCN1c1nc(-c2ccc(NC(=O)NCCO)cc2)cc(-c2cc(F)ccc2S(C)(=O)=O)n1 [Example 41, (S)-1-(4-(6-(5-fluoro-2-(methylsulfonyl)phenyl)-2-(3-methylmorpholino)pyrimidin-4-yl)phenyl)-3-(2-hydroxyethyl)urea] |
| 100 to 1000 nM | 100 to 1000 nM | CS(=O)(=O)c1ccc(F)cc1-c1cc(-c2ccc(NC(=O)NCCO)cc2)nc(N2CCOCC2)n1 [Example 62, 1-(4-(6-(5-fluoro-2-(methylsulfonyl)phenyl)-2-morpholinopyrimidin-4-yl)phenyl)-3-(2-hydroxyethyl)urea] |
| 100 to 1000 nM | 100 to 1000 nM | CCNC(=O)Nc1ccc(-c2cc(-c3cc(F)ccc3S(C)(=O)=O)nc(N3CCOC[C@@H]3C)n2)cc1 [Example 2, (S)-1-ethyl-3-(4-(6-(5-fluoro-2-(methylsulfonyl)phenyl)-2-(3-methylmorpholino)pyrimidin-4-yl)phenyl)urea] |
| 100 to 1000 nM | 100 to 1000 nM | C[C@H]1COCCN1c1nc(-c2ccc(NC(=O)NCCF)cc2)cc(-c2cc(F)ccc2S(C)(=O)=O)n1 [Example 44, (S)-1-(4-(6-(5-fluoro-2-(methylsulfonyl)phenyl)-2-(3-methylmorpholino)pyrimidin-4-yl)phenyl)-3-(2-fluoroethyl)urea] |

From US9249129B2, “Morpholino substituted urea derivatives as mTOR inhibitors” (CELLZOME LIMITED, priority 2010, dated 2016)
